Laboratory results as given in BindingDB's records for doi:10.7270/Q24T6GSH (The Scripps Research Institute Molecular Screening Center, 2007).
Structures can show the parent of a compound that is named as a salt.

Target: T1, Isoform 2 of Nuclear receptor ROR-alpha (Alpha-2) (Homo sapiens, UniProt P35398)
T1 sequence (P35398 whole entry): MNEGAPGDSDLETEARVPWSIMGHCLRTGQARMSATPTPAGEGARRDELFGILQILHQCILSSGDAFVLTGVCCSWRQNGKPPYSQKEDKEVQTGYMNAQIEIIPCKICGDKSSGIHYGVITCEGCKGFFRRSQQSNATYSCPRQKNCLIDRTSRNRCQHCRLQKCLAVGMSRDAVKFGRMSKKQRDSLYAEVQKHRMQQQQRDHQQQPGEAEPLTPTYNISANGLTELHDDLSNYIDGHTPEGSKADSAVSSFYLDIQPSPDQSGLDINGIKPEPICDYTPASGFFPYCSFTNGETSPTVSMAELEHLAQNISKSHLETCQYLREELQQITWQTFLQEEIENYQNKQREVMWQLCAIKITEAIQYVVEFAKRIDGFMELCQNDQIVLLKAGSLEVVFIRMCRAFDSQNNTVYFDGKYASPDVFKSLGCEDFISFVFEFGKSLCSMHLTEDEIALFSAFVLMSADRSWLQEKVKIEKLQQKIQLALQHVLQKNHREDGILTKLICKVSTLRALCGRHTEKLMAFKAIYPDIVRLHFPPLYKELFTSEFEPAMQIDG
Assay: activators of RORA ligand-binding domain fusion – cell-based, CHO-K1, Gal4-RORA LBD, luciferase luminescence, counter-screen for SF-1 activator project, dose response (AID 675)

Row | SMILES | EC50 | EC50 (inactive by the depositor's call)
1 | COC(=O)c1ccc(C(=O)C(C#N)c2nc3ccccc3s2)cc1 (stereo not given) [4-[(2Z)-2-(3H-1,3-benzothiazol-2-ylidene)-2-cyano-1-oxoethyl]benzoic acid methyl ester] | 1610 nM | 
2 | Cc1ccc(C(=O)Nc2ncc(Cc3ccccc3)s2)o1 [5-Methyl-furan-2-carboxylic acid (5-benzyl-thiazol-2-yl)-amide] | > 407 nM | 
3 | Cc1ccc(C(=O)Nc2ncc(Cc3ccc(F)cc3)s2)o1 [5-Methyl-furan-2-carboxylic acid [5-(4-fluoro-benzyl)-thiazol-2-yl]-amide] | > 407 nM | 
4 | O=C(Nc1nccs1)c1ccc(COc2ccc(F)cc2)o1 [5-[(4-fluoranylphenoxy)methyl]-N-(1,3-thiazol-2-yl)furan-2-carboxamide] | 4710 nM | 
5 | Nc1c(C(=O)NCc2ccco2)nnn1-c1ccccc1 [5-amino-N-(2-furanylmethyl)-1-phenyl-4-triazolecarboxamide] | > 3670 nM | 
6 | CC1(C)Cc2c(sc(NC(=O)c3ccc(Br)o3)c2C#N)CO1 [5-bromanyl-N-(3-cyano-5,5-dimethyl-4,7-dihydrothieno[2,3-c]pyran-2-yl)furan-2-carboxamide] | 752 nM | 
7 | COc1ccc(OC)c2sc(NC(=O)c3ccc(Br)s3)nc12 [5-bromanyl-N-(4,7-dimethoxy-1,3-benzothiazol-2-yl)thiophene-2-carboxamide] | > 99000 nM | 
8 | O=C(Nc1cccc(-c2nnc(-c3ccccc3)o2)c1)c1ccc(Br)o1 [5-bromanyl-N-[3-(5-phenyl-1,3,4-oxadiazol-2-yl)phenyl]furan-2-carboxamide] | 8560 nM | 
9 | CCc1ccc(C(=O)NCc2cccs2)s1 [5-ethyl-N-(2-thenyl)thiophene-2-carboxamide] | > 3670 nM | 
10 | c1ccc(-c2cnc(CSc3nnc4ccccn34)o2)cc1 [5-phenyl-2-([1,2,4]triazolo[4,3-a]pyridin-3-ylsulfanylmethyl)-1,3-oxazole] | > 1220 nM | 
11 | CCN(CC)c1ccc(-n2cc3c(=O)n(C)c(=O)n(C)c3c2)cc1 [6-(4-Diethylamino-phenyl)-1,3-dimethyl-1,6-dihydro-pyrrolo[3,4-d]pyrimidine-2,4-dione] |  | 12500 nM
12 | COc1ccc(-c2cn3ccsc3n2)cc1 [6-(4-methoxyphenyl)imidazo[2,1-b][1,3]thiazole] | 283 nM | 
13 | CCOC(=O)c1cnc2c(-c3ccccc3)cnn2c1N [7-amino-3-phenyl-6-pyrazolo[1,5-a]pyrimidinecarboxylic acid ethyl ester] | 356 nM | 
14 | COCC(C)NC(=O)c1noc2c1CCc1cc(OC)ccc1-2 (stereo not given) [7-methoxy-N-(1-methoxypropan-2-yl)-4,5-dihydrobenzo[g][1,2]benzoxazole-3-carboxamide] | 1270 nM | 
15 | CCc1nc(Nc2ccc3nccnc3c2)c2oc3ccccc3c2n1 [(2-ethylbenzofuro[3,2-d]pyrimidin-4-yl)-quinoxalin-6-yl-amine;hydrochloride] | > 99000 nM | 
16 | CC(=Nc1cccc(O)c1)c1sc2ccccc2c1O [(2Z)-2-[1-(3-hydroxyanilino)ethylidene]-1-benzothiophen-3-one] | > 3670 nM | 
17 | COC(=O)CSc1nc2cc(C)ccc2cc1C#N [(3-Cyano-7-methyl-quinolin-2-ylsulfanyl)-acetic acid methyl ester] | > 1220 nM | 
18 | Cc1ccc(C2C(C(=O)c3cnn(-c4ccccc4)c3C)C(=O)C(=O)N2CCN(C)C)o1 (stereo not given) [(4E)-1-[2-(dimethylamino)ethyl]-4-[hydroxy-(5-methyl-1-phenyl-4-pyrazolyl)methylidene]-5-(5-methyl-2-furanyl)pyrrolidine-2,3-dione] | 4130 nM | 
19 | CC(=NC1CCCC1)c1c(C)[nH]n(-c2nc3ccccc3s2)c1=O [(4Z)-2-(1,3-benzothiazol-2-yl)-4-[1-(cyclopentylamino)ethylidene]-5-methylpyrazol-3-one] | > 1220 nM | 
20 | Cn1c(-c2ccc3c(c2)OCO3)cnc1NCc1ccccc1 [(5-Benzo[1,3]dioxol-5-yl-1-methyl-1H-imidazol-2-yl)-benzyl-amine] | 11200 nM | 
21 | Fc1ccc2nc(Nc3nc4c(s3)CCCC4)sc2c1 [(6-fluoro-1,3-benzothiazol-2-yl)-(4,5,6,7-tetrahydro-1,3-benzothiazol-2-yl)amine] | 639 nM | 
22 | CC(=N)C(C#N)C(=O)CSc1ccc2c(c1)OCCO2 (stereo not given) [(E)-3-amino-2-[2-(2,3-dihydro-1,4-benzodioxin-6-ylsulfanyl)acetyl]but-2-enenitrile] | 1160 nM | 
23 | O=C(Nc1ccc(NC(=O)c2cccs2)cn1)c1ccco1 [Furan-2-carboxylic acid {5-[(thiophene-2-carbonyl)-amino]-pyridin-2-yl}-amide] | 2710 nM | 
24 | COc1ccccc1Nc1nc2ccccc2[nH]1 [N-(2-methoxyphenyl)-1H-benzimidazol-2-amine] | 1620 nM | 
25 | COCCn1c(C)cc(C(=O)COC(=O)C23CC4CC(CC(O)(C4)C2)C3)c1C [[2-[1-(2-methoxyethyl)-2,5-dimethylpyrrol-3-yl]-2-oxoethyl] 3-hydroxyadamantane-1-carboxylate] | 741 nM | 

Now from value to molecule:

Row | EC50 | EC50 (inactive by the depositor's call) | SMILES
26 | 556 nM |  | CC(=O)Nc1ccc(-c2cc3ccccc3o2)cc1 [MLS000036584]
27 | 596 nM |  | O=C(Nc1nnc(C2CCCCC2)s1)c1ccco1 [MLS000039439]
28 | 2930 nM |  | CC(=O)c1c(C)[nH]c(C(=O)NCCc2cccc(C)c2)c1C [MLS000045238]
29 | > 99000 nM |  | O=C(NCC1CCCO1)c1coc2nc3ccccc3nc12 (stereo not given) [MLS000046703]
30 | 446 nM |  | O=C(Nc1ccc2c(c1)OCO2)c1ccc(COc2ccc3c(c2)CCC3)o1 [MLS000048173]
31 | 2460 nM |  | COc1ccc(CCC(=O)Nc2ccc(-c3noc(-c4ccc(OC)c(OC)c4)n3)cc2)cc1 [MLS000049572]
32 | 653 nM |  | O=C(Nc1ccc(-c2cn3ccsc3n2)cc1)C1CC1 [MLS000053249]
33 | > 99000 nM |  | COc1ccc(NC(=O)c2ccc3c(c2)OCO3)cc1Cl [MLS000053302]
34 | 7320 nM |  | CS(=O)(=O)c1ccc2nc(NC(=O)C3COc4ccccc4O3)sc2c1 (stereo not given) [MLS000056123]
35 | 480 nM |  | O=C(Nc1ccc(CN2CCOCC2)cc1)c1cc2ccccc2o1 [MLS000062478]
36 | 2530 nM |  | CC(C)(C)c1cc(NC(=O)C2CCCO2)no1 (stereo not given) [MLS000065845]
37 | > 1220 nM |  | O=C(NCc1ccco1)c1cc2c(s1)CCCCC2 [MLS000065859]
38 | 1570 nM |  | CCOC(=O)c1cc2cc(OC)ccc2[nH]1 [MLS000071430]
39 | 1470 nM |  | C=CCn1c(-c2ccccc2)c[nH]c1=S [MLS000071728]
40 | 736 nM |  | CCOc1ccc(OCC)c(NC(=O)CSc2nc3c(c(=O)n(C)c(=O)n3C)n2C(C)C)c1 [MLS000072726]
41 | 4140 nM |  | Cc1cnc(NC(=O)CSc2nnc(-c3ccccc3)o2)s1 [MLS000077990]
42 | 731 nM |  | CCOC(=O)c1[nH]c2ccc(C)cc2c1N [MLS000079379]
43 | 551 nM |  | Nc1nc2c(s1)CCc1c-2cnn1-c1ccccc1 [MLS000085948]
44 | 8140 nM |  | Cc1cc(C(=O)Nc2sc3c(c2C#N)CCC(C(C)(C)C)C3)no1 (stereo not given) [MLS000087312]
45 | > 99000 nM |  | CN(C)C=Nc1ncnc2c1cnn2-c1ccc(C(F)(F)F)cn1 [MLS000087855]
46 | 9170 nM |  | CCCc1cc(C(=O)Nc2ccccc2SC)no1 [MLS000116378]
47 | 1220 nM |  | CC(=O)c1cccc(NC(=O)c2cnn3ccccc23)c1 [MLS000118777]
48 | 2160 nM |  | CCOc1ccc(OCC)c(NC(=O)C2CCCN2S(=O)(=O)c2cccc3cccnc23)c1 (stereo not given) [MLS000119093]
49 | 747 nM |  | CC(=O)Nc1ccc(-c2nc3c(C)cccc3[nH]2)cc1 [SMR000001134]
50 | 10800 nM |  | Cc1cc2n(n1)C(c1ccc(N(C)C)cc1)Nc1ccccc1-2 (stereo not given) [SMR000015202]
51 | > 99000 nM |  | CC1(C)CC(=O)C(=CNc2ccccc2)C(=O)C1 [SMR000054233]
52 | 3720 nM |  | O=c1[nH]c2ccccc2nc1-c1cccs1 [SMR000068248]
53 | 5360 nM |  | CN(C)C(=O)CSc1nnc(C23CC4CC(CC(C4)C2)C3)o1 [SMR000077996]
54 | 403 nM |  | CCCCC1CCC(c2nc(-c3ccccn3)no2)CC1 (stereo not given) [SMR000105468]
55 | 9880 nM |  | CC1(C)CC(=O)C(=CNc2ccc3[nH]ncc3c2)C(=O)C1 [SMR000111453]
